# In paper PMC10177510, “A Multicenter, Open-Label, Phase I/II Study of FN-1501 in Patients with Advanced Solid Tumors” (Cancers, 2023):
# Assay: Phase I/II dose escalation: safety and tolerability (DLT, TEAE)
# Type: in vivo
# Method: This Phase 1/2, FIH, open-label, multi-center, single-arm, dose-escalation study was conducted in pts with histologically or cytologically confirmed advanced solid tumors or R/R AML.
# In the absence of worrisome toxicity, the remaining pts could be enrolled and dosed in that cohort. Safety evaluations were performed by investigators, the medical monitor, and the Sponsor. A Safety Monitoring Committee determined dose levels to be administered during dose escalation based on data available from the current and previous dose levels.
compound,measurement,setting,value
CN1CCN(Cc2ccc(NC(=O)c3[nH]ncc3Nc3ncnc4[nH]ccc34)cc2)CC1 [FN-1501],"Diarrhea, patients with event","72 mg/day, N = 3",1
same,"Dizziness, patients with event","72 mg/day, N = 3",0
same,"Dyspnea, patients with event","72 mg/day, N = 3",0
same,"Fatigue, patients with event","72 mg/day, N = 3",0
same,"Infusion-related reaction, patients with event","72 mg/day, N = 3",0
same,"Nausea, patients with event","72 mg/day, N = 3",1
same,"Oedema peripheral, patients with event","72 mg/day, N = 3",1
same,"Pyrexia, patients with event","72 mg/day, N = 3",0
same,"Small intestinal obstruction, Grade ≥ 3 TEAE, n (%)","72 mg/day, N = 3",1
same,Total number of TEAEs,"72 mg/day, N = 3",15
same,Total patients with at least 1 TEAE,"72 mg/day, N = 3",2
same,"Vomiting, patients with event","72 mg/day, N = 3",0
same,Dose-Limiting Toxicity,"96 mg/day, 5 patients",0
same,"Abdominal pain, patients with event","96 mg/day, N = 5",0
same,"Back pain, patients with event","96 mg/day, N = 5",0
same,"Constipation, patients with event","96 mg/day, N = 5",1
same,"Decreased appetite, patients with event","96 mg/day, N = 5",0
same,"Diarrhea, patients with event","96 mg/day, N = 5",1
same,"Diarrhoea, Grade ≥ 3 TEAE, n (%)","96 mg/day, N = 5",1
same,"Dizziness, patients with event","96 mg/day, N = 5",1
same,"Dyspnea, patients with event","96 mg/day, N = 5",0
same,"Fatigue, patients with event","96 mg/day, N = 5",0
same,"Infusion-related reaction, patients with event","96 mg/day, N = 5",1
same,"Lipase increased, Grade ≥ 3 TEAE, n (%)","96 mg/day, N = 5",1
same,"Nausea, patients with event","96 mg/day, N = 5",2
same,"Oedema peripheral, patients with event","96 mg/day, N = 5",0
same,"Pneumonia aspiration, Grade ≥ 3 TEAE, n (%)","96 mg/day, N = 5",1
same,"Pneumonia, Grade ≥ 3 TEAE, n (%)","96 mg/day, N = 5",1
same,"Pneumothorax, Grade ≥ 3 TEAE, n (%)","96 mg/day, N = 5",1
same,"Pyrexia, patients with event","96 mg/day, N = 5",0
same,Total number of TEAEs,"96 mg/day, N = 5",33
same,Total patients with at least 1 TEAE,"96 mg/day, N = 5",5
same,"Vomiting, patients with event","96 mg/day, N = 5",2
same,Dose-Limiting Toxicity,"128 mg/day, 3 patients",0
same,"Abdominal pain, patients with event","128 mg/day, N = 3",1
same,"Acute kidney injury, Grade ≥ 3 TEAE, n (%)","128 mg/day, N = 3",1
same,"Aspartate aminotransferase increased, Grade ≥ 3 TEAE, n (%)","128 mg/day, N = 3",1
same,"Back pain, patients with event","128 mg/day, N = 3",1
same,"Blood creatinine increased, Grade ≥ 3 TEAE, n (%)","128 mg/day, N = 3",1
same,"Constipation, patients with event","128 mg/day, N = 3",0
same,"Decreased appetite, patients with event","128 mg/day, N = 3",1
same,"Diarrhea, patients with event","128 mg/day, N = 3",0
same,"Dizziness, patients with event","128 mg/day, N = 3",1
same,"Dyspnea, patients with event","128 mg/day, N = 3",1
same,"Fatigue, patients with event","128 mg/day, N = 3",1
same,"Infusion-related reaction, patients with event","128 mg/day, N = 3",0
same,"Nausea, patients with event","128 mg/day, N = 3",1
same,"Oedema peripheral, patients with event","128 mg/day, N = 3",1
same,"Pyrexia, patients with event","128 mg/day, N = 3",1
same,Total number of TEAEs,"128 mg/day, N = 3",43
same,Total patients with at least 1 TEAE,"128 mg/day, N = 3",2
same,"Vomiting, patients with event","128 mg/day, N = 3",0
same,Dose-Limiting Toxicity,"170 mg/day, 4 patients",0
same,"Abdominal pain, patients with event","170 mg/day, N = 4",1
same,"Back pain, patients with event","170 mg/day, N = 4",0
same,"Bacteraemia, Grade ≥ 3 TEAE, n (%)","170 mg/day, N = 4",1 (25)
same,"Constipation, patients with event","170 mg/day, N = 4",2
same,"Decreased appetite, patients with event","170 mg/day, N = 4",1
same,"Dehydration, Grade ≥ 3 TEAE, n (%)","170 mg/day, N = 4",1 (25)
same,"Diarrhea, patients with event","170 mg/day, N = 4",2
same,"Dizziness, patients with event","170 mg/day, N = 4",1
same,"Dyspnea, patients with event","170 mg/day, N = 4",2
same,"Fatigue, patients with event","170 mg/day, N = 4",4
same,"Hyponatraemia, Grade ≥ 3 TEAE, n (%)","170 mg/day, N = 4",1
same,"Hypoxia, Grade ≥ 3 TEAE, n (%)","170 mg/day, N = 4",1 (25)
same,"Infusion-related reaction, patients with event","170 mg/day, N = 4",2
same,"Lethargy, Grade ≥ 3 TEAE, n (%)","170 mg/day, N = 4",1 (25)
same,"Nausea, patients with event","170 mg/day, N = 4",1
same,"Neutropenia, Grade ≥ 3 TEAE, n (%)","170 mg/day, N = 4",1 (25)
same,"Oedema peripheral, patients with event","170 mg/day, N = 4",0
same,"Pyrexia, patients with event","170 mg/day, N = 4",0
same,Total number of TEAEs,"170 mg/day, N = 4",60
same,Total patients with at least 1 TEAE,"170 mg/day, N = 4",4
same,"Vomiting, patients with event","170 mg/day, N = 4",1
same,"DLT of Grade 4 thrombocytopenia, pts",226 mg/d cohort,1 (25%)
same,pts with ≥Grade 3 AEs that qualified as DLTs,226 mg/d cohort,50%
same,"Abdominal pain, patients with event","226 mg/day, N = 4",0
same,"Back pain, Grade ≥ 3 TEAE, n (%)","226 mg/day, N = 4",2
same,"Back pain, patients with event","226 mg/day, N = 4",2
same,"Constipation, patients with event","226 mg/day, N = 4",0
same,"Decreased appetite, patients with event","226 mg/day, N = 4",1
same,"Diarrhea, patients with event","226 mg/day, N = 4",3
same,"Diarrhoea, Grade ≥ 3 TEAE, n (%)","226 mg/day, N = 4",1 (25)
same,"Dizziness, patients with event","226 mg/day, N = 4",1
same,"Dyspnea, patients with event","226 mg/day, N = 4",0
same,"Fatigue, patients with event","226 mg/day, N = 4",0
same,"Hyponatraemia, Grade ≥ 3 TEAE, n (%)","226 mg/day, N = 4",1
same,"Hypophosphataemia, Grade ≥ 3 TEAE, n (%)","226 mg/day, N = 4",1 (25)
same,"Infusion related reaction, Grade ≥ 3 TEAE, n (%)","226 mg/day, N = 4",1 (25)
same,"Infusion-related reaction, patients with event","226 mg/day, N = 4",1
same,"Iron deficiency anaemia, Grade ≥ 3 TEAE, n (%)","226 mg/day, N = 4",1 (25)
same,"Nausea, patients with event","226 mg/day, N = 4",1
same,"Oedema peripheral, patients with event","226 mg/day, N = 4",0
same,"Pneumonia, Grade ≥ 3 TEAE, n (%)","226 mg/day, N = 4",1 (25)
same,"Pyrexia, patients with event","226 mg/day, N = 4",0
same,"Thrombocytopenia, Grade ≥ 3 TEAE, n (%)","226 mg/day, N = 4",1 (25)
same,Total number of TEAEs,"226 mg/day, N = 4",46
same,Total patients with at least 1 TEAE,"226 mg/day, N = 4",4
same,"Vomiting, patients with event","226 mg/day, N = 4",2
same,Maximum tolerated dose (MTD),"IV TIW 2 weeks on, 1 week off",170 mg/day
same,Maximum tolerated dose (MTD),"IV three times a week for 2 weeks, 21-day cycles",170 mg
same,"Abdominal distension, Grade ≥ 3 TEAE, n (%)","Total, N = 48",1 (2)
same,"Abdominal pain, Grade ≥ 3 TEAE, n (%)","Total, N = 48",1
same,"Abdominal pain, patients with event","Total, N = 48",9
same,"Acute kidney injury, Grade ≥ 3 TEAE, n (%)","Total, N = 48",1
same,"Adrenal insufficiency, Grade ≥ 3 TEAE, n (%)","Total, N = 48",1 (2)
same,"Anaemia, Grade ≥ 3 TEAE, n (%)","Total, N = 48",1 (2)
same,"Aspartate aminotransferase increased, Grade ≥ 3 TEAE, n (%)","Total, N = 48",1
same,"Back pain, patients with event","Total, N = 48",6
same,"Bacteraemia, Grade ≥ 3 TEAE, n (%)","Total, N = 48",1
same,"Bacterial sepsis, Grade ≥ 3 TEAE, n (%)","Total, N = 48",1
same,"Blood alkaline phosphatase increased, Grade ≥ 3 TEAE, n (%)","Total, N = 48",1 (2)
same,"Blood bilirubin increased, Grade ≥ 3 TEAE, n (%)","Total, N = 48",1 (2)
same,"Blood creatinine increased, Grade ≥ 3 TEAE, n (%)","Total, N = 48",1
same,"Catheter site infection, Grade ≥ 3 TEAE, n (%)","Total, N = 48",1
same,"Constipation, patients with event","Total, N = 48",7
same,"Decreased appetite, patients with event","Total, N = 48",6
same,"Dehydration, Grade ≥ 3 TEAE, n (%)","Total, N = 48",1
same,"Delirium, Grade ≥ 3 TEAE, n (%)","Total, N = 48",1
same,"Dizziness, patients with event","Total, N = 48",7
same,"Dyspnea, patients with event","Total, N = 48",6
same,"Fatigue, patients with event","Total, N = 48",15
same,"Hypophosphataemia, Grade ≥ 3 TEAE, n (%)","Total, N = 48",1
same,"Hypoxia, Grade ≥ 3 TEAE, n (%)","Total, N = 48",1
same,"Infusion related reaction, Grade ≥ 3 TEAE, n (%)","Total, N = 48",1
same,"Infusion-related reaction, patients with event","Total, N = 48",7
same,"Iron deficiency anaemia, Grade ≥ 3 TEAE, n (%)","Total, N = 48",1
same,"Lethargy, Grade ≥ 3 TEAE, n (%)","Total, N = 48",1
same,"Lipase increased, Grade ≥ 3 TEAE, n (%)","Total, N = 48",1 (2)
same,"Lung infection, Grade ≥ 3 TEAE, n (%)","Total, N = 48",1
same,"Neutropenia, Grade ≥ 3 TEAE, n (%)","Total, N = 48",1
same,"Oedema peripheral, patients with event","Total, N = 48",5
same,"Peritonitis, Grade ≥ 3 TEAE, n (%)","Total, N = 48",1 (2)
same,"Pneumonia aspiration, Grade ≥ 3 TEAE, n (%)","Total, N = 48",1 (2)
same,"Pneumothorax, Grade ≥ 3 TEAE, n (%)","Total, N = 48",1 (2)
same,"Pyrexia, patients with event","Total, N = 48",5
same,"Sepsis, Grade ≥ 3 TEAE, n (%)","Total, N = 48",1 (2)
same,"Stomatitis, Grade ≥ 3 TEAE, n (%)","Total, N = 48",1
same,"Syncope, Grade ≥ 3 TEAE, n (%)","Total, N = 48",1 (2)
same,"Thrombocytopenia, Grade ≥ 3 TEAE, n (%)","Total, N = 48",1
same,Total number of TEAEs,"Total, N = 48",381
same,Total patients with at least 1 TEAE,"Total, N = 48",45
same,"Vascular access complication, Grade ≥ 3 TEAE, n (%)","Total, N = 48",1
same,"Grade 1–2 diarrhea (TEAE), pts","abstract, all doses",26%
same,"Grade 1–2 fatigue (TEAE), pts","abstract, all doses",34%
same,"Grade 1–2 nausea (TEAE), pts","abstract, all doses",32%
same,"Treatment-related adverse events (TRAEs), pts",all doses 2.5 to 226 mg IV,64%
same,"Abdominal distension, pts","all doses, N = 48",4
same,"Gastrointestinal (GI) disorders, pts","all doses, N = 48",30 (63%)
same,"Grade 1 or 2 fatigue, pts","discussion, all doses",21%
same,"Grade 1 or 2 nausea, pts","discussion, all doses",19%
same,DLTs,doses of 170 mg or lower,No DLTs
